Among the data in PubChem BioAssay (NCI) are TGI values, retold here.

Common to all, as to assay: DTP human tumour cell line panel, 48 h
Experiment [1] relates to NCI-H460 lung.
Experiment [2] concerns SK-MEL-2 melanoma.
The subject of experiment [3] is 786-0 renal.
For experiment [4], the system named is HCT-116 colon.
Experiment [5] relates to UACC-257 melanoma.
For experiment [6], the system named is HL-60(TB) leukemia.
Experiment [7] deals with OVCAR-8 ovarian.
Experiment [8] has as its system A549 NSCLC.
Experiment [9] relates to PC-3 prostate.
Experiment [10] deals with NCI-H522 lung.

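The compound was tested at five concentrations on cells cultured in 96-well plates, with a 48-hour exposure period. TGI: concentration producing complete growth inhibition.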 Some results are limits rather than exact numbers.

For the molecule `CC[C@H](C)C1=C(O)[N@+]2([O-])Oc3ccc(-c4c(O)c(O)c(-c5ccc(O)cc5)c(OC(C)=O)c4OC(C)=O)cc3O[C@]2([C@@H](C)CC)C(=O)N1O`, the TGI (in general, the concentration at which net growth stops) was greater than 50 µM in [1]; greater than 50 µM in experiment [2]; greater than 50 µM in [3]; 20.2 µM in [4]; greater than 50 µM in [5]; greater than 50 µM in [6]. Besides, the TGI was greater than 50 µM in [7], greater than 50 µM in experiment [8], greater than 50 µM in [9] and 17.4 µM in [10].

Turning to `CC1(C)CCCCCC(C)(CCCO)C1=O` (stereo not given), the TGI in experiment [1], in experiment [2], in experiment [3], in [4], in experiment [5] and in experiment [6] was greater than 100 µM throughout. Also, the TGI in [7], in experiment [8], in experiment [9] and in experiment [10] was greater than 100 µM in each case.

On to `CC1CN=C(c2cccc(-c3nc(-c4cccc(C5=NCC(C)N5)c4)nc(N(C)C)n3)c2)N1` (stereo not given), for which the TGI in experiment [1] came out at 4.38 µM; in experiment [2], 4.64 µM; in experiment [3], 5.67 µM; in [4], 2.49 µM; in experiment [5], 11 µM; in experiment [6], 4.81 µM. The TGI in experiment [7] turned out to be 11.6 µM; in experiment [8] it was 9.27 µM; in experiment [9] it was 3.31 µM; in [10] it was 2.51 µM.

With `CCOC(=O)c1cc(C2CCN(c3ccccc3)C2=O)c(C(=O)/C=C(/C)N)[nH]1` (stereo not given), the TGI in [1] is greater than 100 µM; in experiment [2] it was greater than 100 µM; in experiment [3] it was 21.8 µM; in experiment [4], 27.9 µM; in experiment [5] it was greater than 100 µM; in experiment [6], greater than 100 µM. The TGI in [7] is greater than 100 µM; in experiment [8], greater than 100 µM; in experiment [9] it was greater than 100 µM; in experiment [10], 53.1 µM.

As for `COc1cc(NC=C2C(=O)OC(C)(C)OC2=O)c(OC)c(C)c1OC`, the TGI in experiment [1], in [2], in [3], in [4], in experiment [5] and in [6] was greater than 100 µM throughout. Moreover, the TGI in [7], in experiment [8], in experiment [9] and in experiment [10] was greater than 100 µM throughout.

Turning to `CC(C)/C(=N\[N+](C)(C)C)c1ccccc1`, the TGI in experiment [1], in [2], in experiment [3], in [4], in [5] and in [6] was greater than 100 µM in each case. Further, the TGI in [7], in [8], in experiment [9] and in experiment [10] was greater than 100 µM in each case.

As to `C=CCCCCOC1C=CC(O)C(CO)O1` (stereo not given), the TGI in experiment [1], in experiment [2], in experiment [3], in [4], in experiment [5] and in experiment [6] was greater than 100 µM each time. For the same molecule, the TGI in experiment [7], in experiment [8], in experiment [9] and in experiment [10] was greater than 100 µM throughout.

Regarding `COC(=O)/C=C\C(C#N)(C#N)N=Cc1sccc1C`, the TGI in experiment [1] worked out at 31.4 µM; in experiment [2], 30.2 µM; in experiment [3] it was 4.34 µM; in experiment [4], 6.69 µM; in [5], 23.3 µM; in [6], 4.45 µM. For the same molecule, the TGI turned out to be 8.69 µM in experiment [7], 29.6 µM in experiment [8], 19.8 µM in experiment [9] and 1.67 µM in experiment [10].

`CCOC(=O)CN1CC(C2=C(O)CN(CC(=O)OCC)C2=O)=CC1=O`: the TGI in [1], in experiment [2], in experiment [3], in [4], in experiment [5] and in experiment [6] was greater than 100 µM throughout. Besides, the TGI in experiment [7], in experiment [8], in [9] and in [10] was greater than 100 µM each time.

Consider `Cc1ccc(S(=O)(=O)N/N=C2/CC3CCC4CC2CC34)cc1` (stereo not given), for which the TGI in experiment [1], in [2], in experiment [3], in [4], in [5] and in experiment [6] was greater than 100 µM throughout. For the same molecule, the TGI in experiment [7], in [8], in experiment [9] and in [10] was greater than 100 µM in each case.

`NC(=O)c1c(NC=O)ncn1C1OCC(O)C(O)C1O` (stereo not given): the TGI in experiment [1], in experiment [2], in [3], in [4], in experiment [5] and in experiment [6] was greater than 100 µM in each case. Moreover, the TGI in experiment [7], in experiment [8], in experiment [9] and in experiment [10] was greater than 100 µM throughout.

Regarding `N#C/C(N)=C(\C#N)N=CNc1ccc(N)cc1`, the TGI in experiment [1], in experiment [2], in experiment [3], in experiment [4], in [5] and in experiment [6] was greater than 100 µM throughout. The TGI in experiment [7], in [8], in experiment [9] and in [10] was greater than 100 µM in each case.

Take `Cc1cccc2c(N)c3cccc(C(=O)NCC[N+]4(Cc5ccc([N+](=O)[O-])cc5)CCOCC4)c3nc12`: the TGI in experiment [1] was greater than 62.5 µM; in experiment [2], greater than 100 µM; in experiment [3], greater than 100 µM; in experiment [4], 58.5 µM; in experiment [5], greater than 100 µM; in experiment [6] it was 58.1 µM. The TGI is greater than 100 µM in experiment [7], greater than 100 µM in experiment [8], greater than 100 µM in experiment [9] and greater than 84.9 µM in experiment [10].

In the case of `COC(=O)[C@@H]1CC(C(CN)c2cn(C(=O)OC(C)(C)C)c3ccccc23)C(=O)N1C(=O)OC(C)(C)C` (stereo not given in full), the TGI in experiment [1] is 56 µM; in [2] it was 55.3 µM; in experiment [3], greater than 100 µM; in [4] it was greater than 100 µM; in experiment [5], 32.2 µM; in [6], 59.2 µM. The TGI in experiment [7] is 55.8 µM; in experiment [8] it was greater than 100 µM; in [9] it was 80.2 µM; in [10], 95.8 µM.

As to `CSc1c(CC(=O)Nc2ccc(Cl)cc2)n(Cc2ccccc2)c2ccccc12`, the TGI was greater than 100 µM in experiment [1]; 51.3 µM in [2]; 30.3 µM in experiment [3]; greater than 100 µM in [4]; greater than 100 µM in [5]; greater than 100 µM in experiment [6]. In addition, the TGI is 41 µM in experiment [7], greater than 100 µM in [8], 27.7 µM in experiment [9] and greater than 100 µM in [10].

Regarding `CCCN1C(=O)/C(=C\c2ccc(OC)c(OC)c2)SC1=Nc1ccccc1`, the TGI in [1], in experiment [2], in [3], in [4], in experiment [5] and in [6] was greater than 100 µM throughout. The TGI in [7], in [8], in experiment [9] and in experiment [10] was greater than 100 µM each time.

On to `CC(C)(C)OC(=O)CN1CCN(CC(=O)N2CCN(C(=O)OCc3ccccc3)CC2)CCN(CC(=O)OC(C)(C)C)CCN(CC(=O)N2CCN(C(=O)OCc3ccccc3)CC2)CC1`, for which the TGI in experiment [1] is 6.98 µM; in experiment [2], 5.54 µM; in experiment [3], 7.42 µM; in experiment [4] it was greater than 38 µM; in experiment [5], 5.92 µM; in [6] it was 0.525 µM. For the same molecule, the TGI in experiment [7] was determined as 16.8 µM; in [8] it was 16.3 µM; in experiment [9], 12.5 µM; in experiment [10], 2.87 µM.

On to `Cc1cccc(C)c1Nc1nc(C)c(C(=O)CC(=O)C(=O)Nc2c(C(C)C)cccc2C(C)C)s1`, for which the TGI in [1], in experiment [2], in experiment [3], in experiment [4], in [5] and in experiment [6] was greater than 100 µM throughout. Besides, the total growth inhibition concentration (TGI) in experiment [7], in experiment [8], in experiment [9] and in experiment [10] was greater than 100 µM in each case.

On to `CCn1c(=O)c2nc(SC)sc2n(-c2ccccc2)c1=O`, for which the TGI in experiment [1], in experiment [2], in experiment [3], in experiment [4], in [5] and in [6] was greater than 100 µM each time. Besides, the TGI in experiment [7], in experiment [8], in experiment [9] and in experiment [10] was greater than 100 µM throughout.

With `C=CCN(c1cc(OC)c2[nH]c(C(=O)OCC)c(C)c2c1[N+](=O)[O-])S(C)(=O)=O`, the TGI is greater than 100 µM in experiment [1]; 51.3 µM in [2]; greater than 100 µM in experiment [3]; 58.3 µM in experiment [4]; greater than 100 µM in [5]; 46.5 µM in [6]. Also, the TGI in experiment [7] was greater than 100 µM; in experiment [8] it was greater than 100 µM; in experiment [9] it was 38.1 µM; in experiment [10] it was 43.9 µM.

With `O=C(Nc1cccc2ccccc12)c1ccccc1`, the TGI in [1], in experiment [2], in experiment [3], in [4], in experiment [5] and in [6] was greater than 100 µM each time. Further, the TGI in experiment [7], in [8], in experiment [9] and in [10] was greater than 100 µM each time.

In the case of `Cc1ccc(O)c(C2=CC(c3cccc(Br)c3)SC(N)=N2)c1` (stereo not given), the concentration for total growth inhibition (TGI) in [1] worked out at 49.8 µM; in [2] it was 39.4 µM; in experiment [3], 74.4 µM; in experiment [4], 35.9 µM; in [5], 41.3 µM; in [6] it was 75.1 µM. The TGI in experiment [7] was greater than 100 µM; in experiment [8], 88.3 µM; in experiment [9], greater than 100 µM; in experiment [10] it was 37.7 µM.

Turning to `CSCCCNC(=O)c1csc(-c2csc(CCNC(=O)CNC(=O)CNC(=O)OC(C)(C)C)n2)n1`, the TGI in experiment [1], in experiment [2], in experiment [3], in [4], in experiment [5] and in [6] was greater than 100 µM throughout. Also, the TGI in experiment [7], in experiment [8], in [9] and in experiment [10] was greater than 100 µM in each case.

Consider `COc1cc2ccc1OCc1cccc(n1)COc1ccc(cc1OC)C=NCCNCCNCCN=C2`, for which the TGI in experiment [1], in experiment [2], in experiment [3], in [4], in experiment [5] and in experiment [6] was greater than 100 µM each time. Also, the TGI in experiment [7], in experiment [8], in experiment [9] and in [10] was greater than 100 µM throughout.

For the molecule `CC[P+]1(c2ccccc2)[C@@H](C)CC[C@@H]1C`, the TGI in experiment [1], in experiment [2], in [3], in experiment [4], in [5] and in experiment [6] was greater than 100 µM throughout. Besides, the TGI in experiment [7], in [8], in experiment [9] and in experiment [10] was greater than 100 µM throughout.

`CCOC(=O)c1c(N2CCCC2)ncn(C)c1=S`: the TGI in experiment [1], in [2], in experiment [3], in experiment [4], in experiment [5] and in experiment [6] was greater than 100 µM throughout. For the same molecule, the TGI in [7], in [8], in experiment [9] and in experiment [10] was greater than 100 µM each time.
